Source: patent publication US6207674A, “Dextromethorphan and oxidase inhibitor for weaning patients from narcotics and anti-depressants” (priority 1999, dated 2001)
Read-outs that look alike come from different tables or passages of the source.

Experiments:
[1] = system: cytochrome P450-2D6 enzyme; conditions: cited from earlier work
pain = conditions: DM combined with morphine; published reports; cited from earlier work
[2] = system: morphine and anti-depressant dependence; assay: Patient Number 1, initial 3-week trial of DM alone (neuropathic pain, weaning from morphine and anti-depressants); type: in vivo, human
Text: They took capsules with 30 milligrams of DM, twice each day.

[3] = coadministration with DM; cited from earlier work
[4] = DM 30 mg twice a day, oral, about three weeks, no quinidine
[5] = read-out: Michaelis-Menton inhibition (Ki) value, P450-2D6, in vitro, Inaba et al 1985

Structure (SMILES): COCCc1ccc(OCC(O)CNC(C)C)cc1 (racemic) [metaprolol]
- Ki [1]: 18 µM

Structure (SMILES): COc1ccc2c(c1)[C@]13CCCC[C@@H]1[C@H](C2)N(C)CC3 [DM, dextromethorphan]
- potentiation of pain-relieving activity of morphine (pain): potentiated the pain-relieving activity of morphine
- symptoms reported at follow-up exam [2, 4]: symptoms were unchanged
- use and dosages of morphine and WELLBUTRIN [2, 4]: remained the same
- nighttime dosage of ELAVIL at follow-up ([2]; reduced from 250 mg, DM 30 mg twice a day, about three weeks, no quinidine): 100 mg
- overall result of DM by itself (summary) ([2]; without an oxidase inhibitor): no substantial benefit

Structure (SMILES): CNCCC(Oc1ccc(C(F)(F)F)cc1)c1ccccc1 (stereo not shown) [Fluoxetine, fluoxetine]
- effect on DM concentration / level in blood [3]: increase the concentrations of DM

Structure (SMILES): C=C[C@H]1C[N@@]2CC[C@H]1C[C@@H]2[C@@H](O)c1ccnc2ccc(OC)cc12 [Quinidine, quinidine]
- Ki [1, 5]: 0.06 µM
- effect on DM concentration / level in blood [3]: increase the level of DM in the blood of most patients

Structure (SMILES): CC[C@H]1[C@@H]2C[C@H]3[C@@H]4N(C)c5ccccc5[C@]45C[C@@H]([C@H]2[C@H]5O)N3[C@@H]1O [ajmaline]
- Ki [1, 5]: 2 µM

Structure (SMILES): O=c1[nH]c2ccccc2n1CCCN1CCC(n2c(=O)[nH]c3cc(Cl)ccc32)CC1 [domperidone]
- Ki [1, 5]: 8 µM

Structure (SMILES): O=C(CCCN1CCC(O)(c2ccc(Cl)cc2)CC1)c1ccc(F)cc1 [haloperidol]
- Ki [1]: 1 µM

Structure (SMILES): CC(CCc1ccccc1)NCC(O)c1ccc(O)c(C(N)=O)c1 (stereo not shown) [labetalol]
- Ki [1, 5]: 7 µM

Structure (SMILES): CN1[C@@H](CC(=O)c2ccccc2)CCC[C@H]1C[C@H](O)c1ccccc1 [lobeline]
- Ki [1, 5]: 2 µM

Structure (SMILES): Cc1cccc(C)c1OCC(C)N (stereo not shown) [mexiletine]
- Ki [1, 5]: 30 µM

Structure (SMILES): CNCCC=C1c2ccccc2CCc2ccccc21 [nortriptyline]
- Ki [1, 5]: 15 µM

Structure (SMILES): C=CCOc1ccccc1OCC(O)CNC(C)C (stereo not shown) [oxprenolol]
- Ki [1, 5]: 15 µM

Structure (SMILES): COc1ccc(Cc2nccc3cc(OC)c(OC)cc23)cc1OC [papaverine]
- Ki [1, 5]: 25 µM

Structure (SMILES): NC(=O)C1(N2CCCCC2)CCN(CCCC(=O)c2ccc(F)cc2)CC1 [pipamperone]
- Ki [1]: 4 µM

Structure (SMILES): CC(C)NCC(O)COc1cccc2ccccc12 (stereo not shown) [propranolol]
- Ki [1, 5]: 15 µM

Structure (SMILES): C=C[C@H]1C[N@@]2CC[C@H]1C[C@H]2[C@H](O)c1ccnc2ccc(OC)cc12 [quinine]
- Ki [1, 5]: 15 µM

Structure (SMILES): CC(C)(C)NC[C@H](O)COc1nsnc1N1CCOCC1 [timolol]
- Ki [1, 5]: 18 µM
